# Measurements taken from a melting point compilation (Tetko et al.; mined from patent text by program, amines drawn as free bases though some values may be those of a salt).
row,melting point,SMILES
1,240 to 242 °C,Cc1cccc(-c2ccc(-c3nnc(-c4cccc(C(=O)O)c4)o3)cc2)c1
2,137 to 138 °C,COC(=O)C(C)(C)Cc1ccc2oc(-c3ccc4ccc(Cl)cc4n3)cc2c1
3,234 to 236 °C,O=C(Nc1ccc(-c2ccccc2)cc1C(=O)O)OCc1ccc(-c2ccccc2)cc1
4,167 to 169 °C,O=C1N(Cc2ccc(C(F)(F)F)o2)c2cccc(-c3ccoc3)c2C12COc1cc3c(cc12)CCO3 (stereo unspecified)
5,48 to 50 °C,CS(=O)(=O)OCCc1ccc(OCc2ccccc2)cc1
6,156 to 159 °C,CC(C)(c1ccc2ncccc2c1)n1nnc2ccc(-c3ccc(C(=O)NC4CC4)c(F)c3)nc21
7,118 to 120 °C,CC(=O)c1ccc(N(C(C)=O)c2ccccc2)cc1
8,199 to 200 °C,CC(C)c1ccc(NC(=O)c2ccc(C(=O)O)nc2)cc1C(C)C
9,136 to 138 °C,CC(=NOCCOc1ccc(CC2SC(=O)NC2=O)cc1)c1ccc(-c2ccccc2)cn1 (stereo unspecified)
10,82 to 84 °C,COc1ccc(-c2cc(-c3ccc(-c4c(Cc5ccccc5)sc5ccccc45)cc3)ccc2OC(Cc2ccccc2)C(=O)O)cc1 (stereo unspecified)
11,244 to 245 °C,Cc1c(S(=O)(=O)c2ccc(=O)[nH]n2)oc2ccc(C(F)(F)F)cc12
12,145 to 147 °C,Nc1nccc(OCc2ccccc2)c1[N+](=O)[O-]
13,160 °C,CCOC(=O)C(C(=O)Nc1nccs1)C(=O)c1cccc(C(F)(F)F)c1NC(=O)C(Cl)C(C)C (stereo unspecified)
14,73.9 °C,CCC[C@H](NC(=O)Cc1cc(F)cc(F)c1)C(=O)Nc1ncc(-c2ccc(OC)cc2COC(C)C)s1
15,257 to 259 °C,Cc1ccc2c(NCc3ccc(NC(=O)c4ccc(C)nc4)cc3)nc(Cl)nc2c1
16,79 to 81 °C,CCOC(=O)C(Cc1cccc2ccccc12)(Cc1cccc2ccccc12)C(=O)OCC
17,171 to 172 °C,CC(C)[C@H]1CC[C@H](C(=O)N[C@H](Cc2ccc(OCc3ccc(C(F)(F)F)cc3)cc2)C(=O)O)CC1

row,melting point,SMILES
1,130 °C,CCOC(=O)c1cnc2ccc(-c3ccc(Cl)cc3)cn12
2,111 to 113 °C,CC1(C(=O)Nc2ccc(OCC3CC3)c(Cl)c2)CC1
3,194 to 196 °C,CN1C(=O)CC[C@]2(C)c3ccc(C(=O)Oc4ccccc4)cc3CC[C@@H]12
4,85 to 87 °C,CC(C)(C)OC(=O)C(CO)NC(=O)c1coc(-c2cocn2)n1 (stereo unspecified)
5,128 to 133 °C,CC(=O)C(Cc1ccccc1)(N=Nc1ccc(C(O)(C(F)(F)F)C(F)(F)F)cc1)C(N)=O (stereo unspecified)
6,138 °C,COc1cc(-c2ccnc(-c3cn(C)c(=O)n3-c3ccc(C(C)(C)C#N)cc3)c2)ccn1
7,144 °C,OCc1ccc(Cn2c(CC3CCN(Cc4ccccc4)CC3)nc3ccccc32)o1
8,131 to 133 °C,CCCCCCCOc1ccc(C(=O)Nc2ccccc2O)cc1
9,163 to 164 °C,CCN(CC)CC1CCCCN1CC(=O)N1c2ccccc2NC(=O)c2cscc21 (stereo unspecified)
10,203 to 205 °C,Cc1nc2cccc(S(=O)(=O)n3c(COC(C)C(=O)O)cc4nc(Cl)ccc43)c2s1 (stereo unspecified)
11,107 to 110 °C,CC(Oc1ccccc1-c1ccc(Cl)c(C(=O)NCC23CC4CC(CC(C4)C2)C3)c1)C(=O)O (stereo unspecified)
12,118 to 120 °C,CCOC(=O)c1ccc(-c2cccc(OCc3ccc(COC(=O)c4ccccc4)c(COC(=O)c4ccccc4)c3)c2)nc1
13,126 to 128 °C,CN(C)c1ccc(C(=O)Cc2cccc(Cl)c2)cc1
14,158 to 160 °C,COc1ccc(C=CC(=O)Nc2ccc(C(C)(C)C)cc2)cc1
15,181 to 183 °C,CCOC(=O)COc1ccc(C2=NNC(=O)NC2)cc1
16,116 to 118 °C,CC(Nc1nc(-c2ccccc2)cs1)c1ccc(COc2ccc(CC(=O)O)cc2)cc1 (stereo unspecified)

# The next lines start with the compound.
row,SMILES,melting point
1,CC(C)n1nc(-c2nc(Br)c(N)nc2-c2ccccc2)ccc1=O,204 to 206 °C
2,Cc1ccc(C2c3c(C)c(N4CCN(c5ccccn5)CC4)c(C)c(C)c3OC2(C)C)cc1 (stereo unspecified),190 to 191 °C
3,CSc1nccc(-c2cn(Cc3ccccc3C#N)c(=O)n2-c2ccc(F)cc2)n1,141 to 142 °C
4,COc1cc(Nc2c(C#N)cnc3cc(-c4cccc(CN5CCOCC5)c4)ccc23)c(Cl)cc1Cl,88 to 91 °C
5,CC(C)C1=Nc2ccccc2N(C)C(=O)C1N (stereo unspecified),167 to 168 °C
6,COc1cccnc1CSCCNC(=C[N+](=O)[O-])SC,87.5 to 88.5 °C
7,ClCc1ncc(-c2ccccc2)cc1Cl,74 to 75 °C
8,Cc1cc(O)n2ncc([N+](=O)[O-])c2n1,290 °C
9,COc1ccc(-c2nc3cc(F)ccc3s2)cc1OC(=O)c1cccc([N+](=O)[O-])c1,212 °C
10,CNCC(O)c1ccc(Cl)cc1 (stereo unspecified),84 to 86 °C
11,Cc1nc2c(O)c(CC[C@@H](O)c3ccccc3)c(C(=O)N(C)C)cc2n1COCC[Si](C)(C)C,142 to 143 °C
12,CCOC(=O)NNC1=Nc2sc(CC)cc2C(c2ccccc2Cl)=NC1,207 °C
13,CCN(c1nc(C)cc(C)n1)c1c(O)cc(OC)cc1Br,157 to 160 °C
14,O=C(O)C(=NOC1CCCC1)c1ccco1,96.6 to 97.7 °C
15,O=C(O)c1ccc(S(=O)(=O)Oc2ccc(-c3ccc(-c4c(C(=O)c5ccccc5)oc5ccccc45)cc3)cc2C2CCCC2)cc1O,105 to 108 °C
16,COc1cc2c3c([nH]c2cc1O)-c1ccccc1C3=O,> 260 °C
17,O=C(Nc1ccccn1)C(=O)OC1CCCCC1,62 to 64 °C
18,N#Cc1cc2c(c(C(=O)O)c1-c1ccccc1)NCCC2C(=O)O (stereo unspecified),231 to 232 °C
19,O=C(c1ccccc1)c1cc(-c2ccccc2)c(OS(=O)(=O)c2ccc(C(=O)O)c(O)c2)c(-c2ccccc2)c1,217 °C
20,CCc1ccc2c(-c3ccccc3)onc2c1,41 to 43 °C
21,COc1cc2c(cc1OC)C1=NNC(c3ccc(Cl)cc3)C1CCC2 (stereo unspecified),160 to 163 °C

row,SMILES,melting point
1,Nc1ccc(C(O)(C(F)(F)F)C(F)(F)F)cc1O,168 to 170 °C
2,O=C(OCCN1CCOCC1)c1cn2c(n1)COc1ccccc1-2,142 to 143 °C
3,CC(=O)Nc1ccc(-c2cc(C(C)(C)C)c(O)c(C(C)(C)C)c2)cc1,173 to 174 °C
4,CCCCOC(=O)CS(=O)(=O)CC=C1SC=CS1,99 to 100 °C
5,C#CCCCOc1ccc(C=O)cc1OC,91 to 92 °C
6,COc1cc2nc(N3CCN(C(=O)C4CC=CCC4)CC3)nc(N)c2cc1OC (stereo unspecified),211 to 213 °C
7,Cc1cc(-c2nnc3c4cccnc4c(OCc4ncnn4C)nn23)no1,255 to 257 °C
8,CC1(C2CCC3C4CC=C5CC(O)CC(O)C5(C)C4CCC32C)OCCO1 (stereo unspecified),203 to 207 °C
9,N#Cc1c(N)nc2ccccc2c1NCc1ccccc1,206 °C
10,CCN1CCN(CCOc2cc3ncc(C#N)c(Nc4cc(OC)c(Cl)cc4Cl)c3cc2OC)CC1,101 to 105 °C
11,Cc1ccc2nc(SCCN(C)C)[nH]c2c1,103 °C
12,O=C(O)c1csc(-c2ccc3cc(O)c(C45CC6CC(CC(C6)C4)C5)cc3c2)c1,312 to 314 °C
13,CC12CCC3c4ccc(O)cc4CCC3C1CC(O)C2 (stereo unspecified),181 to 182 °C
14,CNC(=O)c1cc(-c2cnn(C)c2)cc(F)c1Nc1nc(Cl)ncc1Cl,220 to 221 °C
15,O=C(O)CCCCCc1nn(Cc2ccccc2)c2c1CCC2,94 to 95 °C
16,O=C(O)c1cn(-c2cc([N+](=O)[O-])c(F)c(F)c2F)c2nc(Cl)c(F)cc2c1=O,216 to 221 °C
17,O=c1c2ccc(Cl)cc2cc2n1CCCS2,109 to 110 °C
18,N#CNC(=N)CCc1ccccc1Sc1ccccc1CCC(=N)NC#N,188 to 190 °C
19,O=c1nc2c(c3ncnn13)=NC(c1ccccc1)=N2,> 300 °C
20,CCOC(=O)c1c(Cl)nn(C)c1S(=O)(=O)NC(=O)Nc1nc(OC)cc(OC)n1,169 to 170 °C
21,COC(=O)[C@@H]1CSCN1S(=O)(=O)c1ccc(Cl)c(CBr)c1Cl,48 to 50 °C

row,SMILES,melting point
1,C[C@H]1[C@@H](O)CC(=O)N1c1ccc(C#N)c(Cl)c1,161 to 162 °C
2,Cc1cc2ncc(-c3cccc(-c4ccccc4C#N)c3)n2cn1,119 °C
3,N#Cc1cnc2cc(O)c(O)cc2c1Nc1ccc(Cl)cc1F,270 to 272 °C
4,COc1cc2c(cc1OC)C(C=Cc1cccc(OC)c1OC)=NN(C(C)=O)C(C)C2 (stereo unspecified),72 to 74 °C
5,CON=C1c2ccccc2-c2c(N3CCNCC3)nc3ccccc3c21,149 to 150 °C
6,CCCc1nc(OC)c(NC(=O)N2CCN(c3cc(OC)cc(OC)c3)CC2)cc1C,121 to 122 °C
7,COc1ccccc1Nc1cccc2c1C(=O)N(C1CCC(=O)NC1=O)C2=O (stereo unspecified),223 to 225 °C
8,CCc1cc2c(cc(C(N)=O)c(=O)n2Cc2ccc(-c3ccccc3-c3nnn(C(c4ccccc4)(c4ccccc4)c4ccccc4)n3)cc2)c(CC)n1,162 to 165 °C
9,O=C1NC(c2c[nH]c3ccccc23)C(=O)N1CCCN1CCCCC1 (stereo unspecified),233 to 234 °C
10,COCCOCOc1ccccc1N1C(C(C)(C)C)ONC1(Br)C(C)(C)C (stereo unspecified),89 to 91 °C
11,COc1cc(C)c(C(=O)c2c(O)ccc(Br)c2C)c(OC)c1OC,119 to 120 °C
12,CCOC(=O)c1nc2sc([N+](=O)[O-])c(C)c2c(=O)[nH]1,229 to 230 °C
13,Cc1nc(-n2cnn(CC3CC3)c2=O)sc1C(=O)NCc1ccccn1,160 to 161 °C
14,Cn1c(C(F)(F)F)cc(=O)n(-c2c(O)cc(Cl)cc2F)c1=O,143 to 144 °C
15,COc1ccc(C(=C/C=C/C(=O)O)c2ccc(OC)c(OC)c2)cc1OC,174 to 176 °C
16,O=C1CCc2cc(C(=O)[C@H]3C[C@H]3C(=O)O)ccc2N1 (relative stereo),190 to 194 °C
17,CCCNC(=O)c1ccsc1N=C(OCCC)OCCC,57 to 58 °C
18,Cc1ccc(C=O)n1Cc1ccc(Cl)cc1Cl,86 to 87 °C
19,CC1(C)OC(=S)Nc2ccc(-c3cc(F)cc(C(F)(F)F)c3)cc21,204 to 206 °C
20,CC1(C)CCCC(C)(C)N1c1nc(NCCO)nc(NCCO)n1,147 to 148 °C
21,Cc1cc(C2=CCN(S(=O)(=O)C3(C(=O)O)CCOCC3)CC2)ccc1-c1ccccc1,211 to 213 °C
